Reference: ChEMBL document CHEMBL5463729, “Data for DCP probe BAY 1753011” (2023)

Legend:
[1] = biological target: Mitogen-activated protein kinase kinase kinase 8 (Homo sapiens) (UniProt P41279); test: Inhibition of COT(h) at 10.0 µM in the Eurofins Kinase panel; conditions: Compound concentration 10.0 uM
[2] = biological target: Serine/threonine-protein kinase 24 (Homo sapiens) (UniProt Q9Y6E0); test: Inhibition of MST3(h) at 10.0 µM in the Eurofins Kinase panel; conditions: Compound concentration 10.0 uM
Serine/threonine-protein kinase 24 (Homo sapiens), sequence (Q9Y6E0 whole entry, looked up): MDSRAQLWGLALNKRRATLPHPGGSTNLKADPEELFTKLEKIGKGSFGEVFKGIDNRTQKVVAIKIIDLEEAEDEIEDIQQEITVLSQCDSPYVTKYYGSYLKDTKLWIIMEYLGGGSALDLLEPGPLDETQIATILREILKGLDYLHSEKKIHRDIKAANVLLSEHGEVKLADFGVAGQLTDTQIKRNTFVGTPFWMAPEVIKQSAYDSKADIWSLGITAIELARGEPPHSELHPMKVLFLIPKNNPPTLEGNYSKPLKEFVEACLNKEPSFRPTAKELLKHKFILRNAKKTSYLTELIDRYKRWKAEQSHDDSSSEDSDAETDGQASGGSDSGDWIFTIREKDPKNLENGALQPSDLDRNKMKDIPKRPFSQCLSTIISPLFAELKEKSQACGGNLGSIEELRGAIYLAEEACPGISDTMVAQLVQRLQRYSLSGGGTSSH

[3] = biological target: Rhodopsin kinase GRK1 (Homo sapiens) (UniProt Q15835); test: Inhibition of GRK1(h) at 10.0 µM in the Eurofins Kinase panel; conditions: Compound concentration 10.0 uM
[4] = biological target: Glutamate receptor 2 (Homo sapiens) (UniProt P42262); conditions: Rattus norvegicus; Compound concentration 10.0 uM
[5] = biological target: Mitogen-activated protein kinase 13 (Homo sapiens) (UniProt O15264); test: Inhibition of SAPK4(h) at 10.0 µM in the Eurofins Kinase panel; conditions: Compound concentration 10.0 uM
[6] = biological target: Serine/threonine-protein kinase BRSK1 (Homo sapiens) (UniProt Q8TDC3); test: Inhibition of BrSK1(h) at 10.0 µM in the Eurofins Kinase panel; conditions: Compound concentration 10.0 uM
[7] = biological target: Tribbles homolog 2 (Homo sapiens) (UniProt Q92519); test: Inhibition of TRB2(h) at 10.0 µM in the Eurofins Kinase panel; conditions: Compound concentration 10.0 uM
[8] = biological target: Serine/threonine-protein kinase 17A (Homo sapiens) (UniProt Q9UEE5); test: Inhibition of DRAK1(h) at 10.0 µM in the Eurofins Kinase panel; conditions: Compound concentration 10.0 uM
[9] = biological target: Protein kinase C alpha type (Homo sapiens) (UniProt P17252); test: Inhibition of PKCalpha(h) at 10.0 µM in the Eurofins Kinase panel; conditions: Compound concentration 10.0 uM
[10] = biological target: Serine/threonine-protein kinase 16 (Homo sapiens) (UniProt O75716); test: Inhibition of STK16(h) at 10.0 µM in the Eurofins Kinase panel; conditions: Compound concentration 10.0 uM
[11] = biological target: Calcium/calmodulin-dependent protein kinase type II subunit gamma (Homo sapiens) (UniProt Q13555); test: Inhibition of CaMKIIgamma(h) at 10.0 µM in the Eurofins Kinase panel; conditions: Compound concentration 10.0 uM
[12] = biological target: D(3) dopamine receptor (Homo sapiens) (UniProt P35462); conditions: Compound concentration 10.0 uM
D(3) dopamine receptor (Homo sapiens), sequence (P35462 whole entry): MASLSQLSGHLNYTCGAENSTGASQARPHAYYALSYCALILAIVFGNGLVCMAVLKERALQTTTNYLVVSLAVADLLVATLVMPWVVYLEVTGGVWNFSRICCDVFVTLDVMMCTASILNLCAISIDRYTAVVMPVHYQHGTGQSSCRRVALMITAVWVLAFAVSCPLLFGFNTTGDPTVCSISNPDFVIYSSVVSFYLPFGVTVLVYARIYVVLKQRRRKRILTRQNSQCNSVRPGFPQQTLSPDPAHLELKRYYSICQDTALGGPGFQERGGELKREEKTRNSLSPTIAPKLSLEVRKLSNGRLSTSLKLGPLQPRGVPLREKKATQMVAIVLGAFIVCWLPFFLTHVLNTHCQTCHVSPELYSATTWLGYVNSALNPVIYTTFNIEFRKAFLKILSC

[13] = biological target: Beta-3 adrenergic receptor (Homo sapiens) (UniProt P13945); conditions: Compound concentration 10.0 uM
Beta-3 adrenergic receptor (Homo sapiens), sequence (P13945 whole entry, looked up): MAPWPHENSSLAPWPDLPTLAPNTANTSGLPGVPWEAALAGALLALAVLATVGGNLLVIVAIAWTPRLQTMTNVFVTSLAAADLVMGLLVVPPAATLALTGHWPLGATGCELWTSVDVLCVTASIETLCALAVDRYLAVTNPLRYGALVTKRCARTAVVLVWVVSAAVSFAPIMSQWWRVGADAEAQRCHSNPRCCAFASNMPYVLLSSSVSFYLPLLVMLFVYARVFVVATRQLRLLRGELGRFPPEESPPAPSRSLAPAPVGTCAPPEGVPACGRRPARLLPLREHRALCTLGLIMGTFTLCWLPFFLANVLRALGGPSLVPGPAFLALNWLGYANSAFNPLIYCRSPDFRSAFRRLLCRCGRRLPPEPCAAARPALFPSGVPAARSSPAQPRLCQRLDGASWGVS

[14] = biological target: T1, Alpha-1D adrenergic receptor (Homo sapiens) (UniProt P25100); conditions: Compound concentration 10.0 uM
T1 sequence (whole entry): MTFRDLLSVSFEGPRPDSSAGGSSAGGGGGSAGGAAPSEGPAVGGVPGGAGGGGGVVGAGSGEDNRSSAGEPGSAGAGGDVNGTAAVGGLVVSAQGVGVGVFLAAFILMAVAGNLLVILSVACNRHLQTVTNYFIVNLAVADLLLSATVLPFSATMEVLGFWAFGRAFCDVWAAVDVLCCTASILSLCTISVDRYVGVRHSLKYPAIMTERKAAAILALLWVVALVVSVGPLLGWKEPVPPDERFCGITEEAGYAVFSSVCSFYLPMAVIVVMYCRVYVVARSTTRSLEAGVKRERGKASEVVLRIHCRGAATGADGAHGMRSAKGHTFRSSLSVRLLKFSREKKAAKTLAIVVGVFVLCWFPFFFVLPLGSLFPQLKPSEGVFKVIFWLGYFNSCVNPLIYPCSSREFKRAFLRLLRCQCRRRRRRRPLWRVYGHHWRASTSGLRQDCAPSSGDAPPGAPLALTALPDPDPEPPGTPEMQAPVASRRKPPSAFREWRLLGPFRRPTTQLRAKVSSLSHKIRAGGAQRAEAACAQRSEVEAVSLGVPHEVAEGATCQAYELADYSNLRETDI

[15] = biological target: 5-hydroxytryptamine receptor 7 (Homo sapiens) (UniProt P34969); conditions: Compound concentration 10.0 uM
5-hydroxytryptamine receptor 7 (Homo sapiens), sequence (P34969 whole entry): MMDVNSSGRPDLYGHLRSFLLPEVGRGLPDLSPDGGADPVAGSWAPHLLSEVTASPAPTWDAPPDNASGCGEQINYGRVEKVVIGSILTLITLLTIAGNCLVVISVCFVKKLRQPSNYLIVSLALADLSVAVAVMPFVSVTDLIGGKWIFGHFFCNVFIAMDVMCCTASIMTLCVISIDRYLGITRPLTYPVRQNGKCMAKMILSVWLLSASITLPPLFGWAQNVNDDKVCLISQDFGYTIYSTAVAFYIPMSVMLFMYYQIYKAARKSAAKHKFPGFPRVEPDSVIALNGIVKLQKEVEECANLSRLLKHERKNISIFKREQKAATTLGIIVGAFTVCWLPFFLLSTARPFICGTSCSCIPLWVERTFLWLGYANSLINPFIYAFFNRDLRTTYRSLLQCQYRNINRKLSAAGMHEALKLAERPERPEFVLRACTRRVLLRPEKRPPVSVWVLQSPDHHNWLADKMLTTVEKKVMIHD

[16] = biological target: MAP kinase-activated protein kinase 2 (Homo sapiens) (UniProt P49137); test: Inhibition of MAPK2(h) at 10.0 µM in the Eurofins Kinase panel; conditions: Compound concentration 10.0 uM
[17] = biological target: Tyrosine-protein kinase Tec (Homo sapiens) (UniProt P42680); test: Inhibition of Tec(h) activated at 10.0 µM in the Eurofins Kinase panel; conditions: Compound concentration 10.0 uM
Tyrosine-protein kinase Tec (Homo sapiens), sequence (P42680 whole entry): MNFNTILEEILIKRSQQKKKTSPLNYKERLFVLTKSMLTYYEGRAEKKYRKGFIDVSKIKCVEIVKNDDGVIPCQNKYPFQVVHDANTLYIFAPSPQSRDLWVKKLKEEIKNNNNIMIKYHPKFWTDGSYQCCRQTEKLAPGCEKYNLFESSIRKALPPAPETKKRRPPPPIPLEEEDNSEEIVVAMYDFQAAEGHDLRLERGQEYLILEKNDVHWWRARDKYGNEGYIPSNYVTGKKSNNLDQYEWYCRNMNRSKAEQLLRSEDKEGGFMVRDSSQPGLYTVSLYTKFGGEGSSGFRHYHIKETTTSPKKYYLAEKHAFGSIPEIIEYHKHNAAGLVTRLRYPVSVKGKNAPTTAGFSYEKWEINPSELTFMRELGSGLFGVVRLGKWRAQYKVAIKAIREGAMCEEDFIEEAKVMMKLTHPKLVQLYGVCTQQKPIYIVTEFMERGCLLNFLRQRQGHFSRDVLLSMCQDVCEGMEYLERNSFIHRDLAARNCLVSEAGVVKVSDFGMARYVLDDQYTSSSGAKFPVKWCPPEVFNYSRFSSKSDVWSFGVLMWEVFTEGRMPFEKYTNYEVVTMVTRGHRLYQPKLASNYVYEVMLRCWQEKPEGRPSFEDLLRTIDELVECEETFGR

[18] = biological target: Mitogen-activated protein kinase kinase kinase kinase 5 (Homo sapiens) (UniProt Q9Y4K4); test: Inhibition of MAP4K5(h) at 10.0 µM in the Eurofins Kinase panel; conditions: Compound concentration 10.0 uM
[19] = biological target: Tyrosine-protein kinase Srms (Homo sapiens) (UniProt Q9H3Y6); test: Inhibition of SRMS(h) at 10.0 µM in the Eurofins Kinase panel; conditions: Compound concentration 10.0 uM
Tyrosine-protein kinase Srms (Homo sapiens), sequence (Q9H3Y6 whole entry): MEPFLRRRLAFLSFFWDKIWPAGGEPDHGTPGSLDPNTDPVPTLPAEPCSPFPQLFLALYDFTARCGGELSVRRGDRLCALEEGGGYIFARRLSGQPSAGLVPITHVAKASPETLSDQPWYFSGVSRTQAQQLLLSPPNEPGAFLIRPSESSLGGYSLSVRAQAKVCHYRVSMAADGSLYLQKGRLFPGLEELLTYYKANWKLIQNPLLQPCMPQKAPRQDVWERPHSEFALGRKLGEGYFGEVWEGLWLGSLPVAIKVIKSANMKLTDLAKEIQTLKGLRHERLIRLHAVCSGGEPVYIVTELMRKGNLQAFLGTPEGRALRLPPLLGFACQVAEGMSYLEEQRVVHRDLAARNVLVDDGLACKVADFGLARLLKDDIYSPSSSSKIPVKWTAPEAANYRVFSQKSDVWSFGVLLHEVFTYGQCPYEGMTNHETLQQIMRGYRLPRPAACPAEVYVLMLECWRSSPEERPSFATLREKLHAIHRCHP

[20] = biological target: Serine/threonine-protein kinase Nek6 (Homo sapiens) (UniProt Q9HC98); test: Inhibition of NEK6(h) at 10.0 µM in the Eurofins Kinase panel; conditions: Compound concentration 10.0 uM
[21] = biological target: Dual specificity tyrosine-phosphorylation-regulated kinase 3 (Homo sapiens) (UniProt O43781); test: Inhibition of DYRK3(h) at 10.0 µM in the Eurofins Kinase panel; conditions: Compound concentration 10.0 uM
Dual specificity tyrosine-phosphorylation-regulated kinase 3 (Homo sapiens), sequence (O43781 whole entry): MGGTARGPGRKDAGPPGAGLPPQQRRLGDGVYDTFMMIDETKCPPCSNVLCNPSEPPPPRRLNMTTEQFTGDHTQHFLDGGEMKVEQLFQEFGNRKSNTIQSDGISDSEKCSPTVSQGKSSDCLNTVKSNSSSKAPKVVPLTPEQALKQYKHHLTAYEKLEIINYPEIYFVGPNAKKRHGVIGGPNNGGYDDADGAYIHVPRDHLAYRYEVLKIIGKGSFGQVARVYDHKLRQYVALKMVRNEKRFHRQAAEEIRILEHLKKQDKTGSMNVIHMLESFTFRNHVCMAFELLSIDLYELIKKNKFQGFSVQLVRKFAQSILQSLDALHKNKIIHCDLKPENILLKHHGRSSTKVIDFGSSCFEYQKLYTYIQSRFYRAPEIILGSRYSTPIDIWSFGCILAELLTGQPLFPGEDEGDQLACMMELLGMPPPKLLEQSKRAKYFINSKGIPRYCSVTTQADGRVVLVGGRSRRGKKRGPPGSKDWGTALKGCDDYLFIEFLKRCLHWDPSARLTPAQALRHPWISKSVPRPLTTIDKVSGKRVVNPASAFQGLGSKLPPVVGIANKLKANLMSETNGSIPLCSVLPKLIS

[22] = biological target: Megakaryocyte-associated tyrosine-protein kinase (Homo sapiens) (UniProt P42679); test: Inhibition of MATK(h) at 10.0 µM in the Eurofins Kinase panel; conditions: Compound concentration 10.0 uM
[23] = biological target: Ribosomal protein S6 kinase beta-2 (Homo sapiens) (UniProt Q9UBS0); test: Inhibition of p70S6Kbeta(h) at 10.0 µM in the Eurofins Kinase panel; conditions: Compound concentration 10.0 uM
Ribosomal protein S6 kinase beta-2 (Homo sapiens), sequence (Q9UBS0 whole entry, looked up): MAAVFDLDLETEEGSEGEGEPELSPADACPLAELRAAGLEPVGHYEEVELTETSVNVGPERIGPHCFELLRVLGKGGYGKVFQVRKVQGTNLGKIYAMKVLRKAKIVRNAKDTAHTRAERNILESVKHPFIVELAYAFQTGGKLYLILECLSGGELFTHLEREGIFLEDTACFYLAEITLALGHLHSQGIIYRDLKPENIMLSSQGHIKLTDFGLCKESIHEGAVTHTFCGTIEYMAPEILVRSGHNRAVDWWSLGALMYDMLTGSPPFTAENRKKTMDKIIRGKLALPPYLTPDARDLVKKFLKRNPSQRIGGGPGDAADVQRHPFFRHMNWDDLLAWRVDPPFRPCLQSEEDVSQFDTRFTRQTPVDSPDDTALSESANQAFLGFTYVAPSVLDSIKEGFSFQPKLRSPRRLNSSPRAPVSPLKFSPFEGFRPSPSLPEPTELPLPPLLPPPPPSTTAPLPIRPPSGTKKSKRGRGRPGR

[24] = biological target: Serine/threonine-protein kinase TAO1 (Homo sapiens) (UniProt Q7L7X3); test: Inhibition of TAO1(h) at 10.0 µM in the Eurofins Kinase panel; conditions: Compound concentration 10.0 uM
[25] = biological target: D(2) dopamine receptor (Homo sapiens) (UniProt P14416); conditions: Compound concentration 10.0 uM
D(2) dopamine receptor (Homo sapiens), sequence (P14416 whole entry): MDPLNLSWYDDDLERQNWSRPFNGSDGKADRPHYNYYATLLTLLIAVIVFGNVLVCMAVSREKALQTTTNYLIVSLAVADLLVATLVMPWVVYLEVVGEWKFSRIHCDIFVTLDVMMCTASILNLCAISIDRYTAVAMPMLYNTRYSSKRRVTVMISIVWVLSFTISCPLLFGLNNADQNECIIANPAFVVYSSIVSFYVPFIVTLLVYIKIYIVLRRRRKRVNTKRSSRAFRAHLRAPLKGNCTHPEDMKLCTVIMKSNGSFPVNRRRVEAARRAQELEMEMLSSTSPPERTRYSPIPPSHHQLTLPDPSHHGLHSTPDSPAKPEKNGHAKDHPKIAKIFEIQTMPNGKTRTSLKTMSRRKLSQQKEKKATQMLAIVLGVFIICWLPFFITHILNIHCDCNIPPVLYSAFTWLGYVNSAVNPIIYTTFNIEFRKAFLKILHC

[26] = biological target: Mitogen-activated protein kinase kinase kinase 9 (Homo sapiens) (UniProt P80192); test: Inhibition of MLK1(h) at 10.0 µM in the Eurofins Kinase panel; conditions: Compound concentration 10.0 uM
[27] = biological target: Serine/threonine-protein kinase 25 (Homo sapiens) (UniProt O00506); test: Inhibition of STK25(h) at 10.0 µM in the Eurofins Kinase panel; conditions: Compound concentration 10.0 uM
[28] = biological target: Phosphatidylinositol 5-phosphate 4-kinase type-2 alpha (Homo sapiens) (UniProt P48426); test: Inhibition of PIP4K2a(h) at 10.0 µM in the Eurofins Kinase panel; conditions: Compound concentration 10.0 uM
Phosphatidylinositol 5-phosphate 4-kinase type-2 alpha (Homo sapiens), sequence (P48426 whole entry): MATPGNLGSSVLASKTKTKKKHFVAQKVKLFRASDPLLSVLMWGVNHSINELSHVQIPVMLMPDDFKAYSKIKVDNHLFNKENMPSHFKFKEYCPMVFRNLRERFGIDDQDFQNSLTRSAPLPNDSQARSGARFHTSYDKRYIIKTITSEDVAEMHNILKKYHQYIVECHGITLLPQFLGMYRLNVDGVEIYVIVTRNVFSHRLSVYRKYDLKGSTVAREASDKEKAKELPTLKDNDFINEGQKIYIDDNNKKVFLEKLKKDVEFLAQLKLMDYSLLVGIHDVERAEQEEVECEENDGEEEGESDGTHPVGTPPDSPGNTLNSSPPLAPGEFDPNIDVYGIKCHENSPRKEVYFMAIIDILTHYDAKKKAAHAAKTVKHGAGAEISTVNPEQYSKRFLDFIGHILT

[29] = biological target: Death-associated protein kinase 3 (Homo sapiens) (UniProt O43293); test: Inhibition of ZIPK(h) at 10.0 µM in the Eurofins Kinase panel; conditions: Compound concentration 10.0 uM

Row | Compound | inhibition [1] [%] | inhibition [2] [%] | inhibition [3] [%] | inhibition [4] [%] | inhibition [5] [%] | inhibition [6] [%] | inhibition [7] [%] | inhibition [8] [%] | inhibition [9] [%] | inhibition [10] [%] | inhibition [11] [%] | inhibition [12] [%] | inhibition [13] [%] | inhibition [14] [%] | inhibition [15] [%] | inhibition [16] [%] | inhibition [17] [%] | inhibition [18] [%] | inhibition [19] [%] | inhibition [20] [%] | further results
1 | O=c1n(Cc2cncn2-c2cccc(Cl)c2)nc(-c2ccc(Cl)cc2)n1C[C@H](O)C(F)(F)F | -1.4 | 5.64 | -8.45 | 3 | -3.8 | 4.95 | 3.48 | -1.37 | 2.18 | -0.13 | 0.32 | 18.3 | -0.32 | -1.97 | -2 | 11.3 | 2.85 | -1.83 | 4.78 | 5.32 | inhibition [21]: -6.33%; inhibition [22]: 4.16%; inhibition [23]: 3.66%; inhibition [24]: 0.29%; inhibition [25]: 16%; inhibition [26]: -1.25%; inhibition [27]: 6.35%; inhibition [28]: -2.76%; inhibition [29]: 1.49%
2 | C[C@H](O)c1nc(Cn2nc(-c3ccc(Cl)cc3)n(C[C@H](O)C(F)(F)F)c2=O)nn1-c1cccc(Cl)c1 [PECAVAPTAN] | -0.64 | 3.02 | 6.58 | 2 | -3.83 | -5.39 | -2.41 | -9.63 | 1.13 | 4.07 | -3.01 | 19.7 | -1.97 | -0.23 | 17.6 | 11.1 | -7.44 | 6.21 | 7.11 | 4.93 | inhibition [21]: -1.79%; inhibition [22]: 0.84%; inhibition [23]: 1.85%; inhibition [24]: 2.68%; inhibition [25]: 14%; inhibition [26]: 3.5%; inhibition [27]: 9.04%; inhibition [28]: -0.83%; inhibition [29]: -5.08%
